Test results as given in US10668043B2, “Potentiated antimicrobial agents” (priority 2014, dated 2020).
In brackets after ≈: the same amount, converted by molar mass. Like-named read-outs stand apart in the source and are kept apart here. Blank lines part the entries; values can stand above or below the compound they belong to.

Assays:
Staphylococcus = experiment: etest on agar containing the booster; format: cell-based; details: MRSA 10178
Text: (§1) The corresponding tests are made based on the usual MIC test: the etest® (Biomerieux) strip is deposited onto the surface of a seeded agar medium in which the booster has been incorporated. This test enables solvent effect risks, that is a possible interaction with the solvent used in vitro, to be minimised.
(§2) The control corresponds to the test made without cineol. A control is made in each solvent tested: distilled water, Tween/water and DMSO. • ED control=antibiotic alone in distilled water • DMSO control=antibiotic alone in DMSO • TE control=antibiotic alone in Tween® 80

E. coli = experiment: etest on agar containing the booster; format: cell-based; details: Escherichia coli
Text: as §1, §2

Strain 9003/BLSE = experiment: Resistance: occurrence of resistant mutants; format: cell-based; details: 4 times the MIC; 48 h incubation; DMSO
Method: (§3) After 48 h incubation, the presence or absence of colonies likely to be resistant mutants is observed.

Pasteurella = experiment: etest on agar containing the booster; format: cell-based
Text: The corresponding tests are made based on the usual MIC test: the etest® (Biomerieux) strip is deposited onto the surface of a seeded agar medium in which the booster has been incorporated.
as §2
Other e-tests are also made on Pasteurella.

Strain 10168/MRSA = experiment: Resistance: occurrence of resistant mutants; format: cell-based, S. aureus; details: 4 times the MIC; 48 h incubation; DMSO
Method: as §3

MSSA 8238 = details: Sc.; gentamycin 6 mg/kg or amoxicillin 30 mg/kg, cineol 30 mg/kg where present
Method: To Balb/c mice, is injected (Sc.) the antimicrobial product or the antimicrobial+booster mixture.
At different post-injection times, the mice are euthanised, and blood sampled, heparined and centrifuged to extract plasma thereof
Antibacterial effects are measured after 24 h incubation. The successive dilutions enable the antimicrobial effect to be determined and compared with the MIC. The efficient concentration/MIC ratio is thus determined.

[1] = strain 14012, 5 mg cineol water
[2] = strain 14012, 10 mg cineol DMSO
[3] = strain 14012, 10 mg cineol water

Compound: CN(C)c1cc(NC(=O)CNC(C)(C)C)c(O)c2c1C[C@H]1C[C@H]3[C@H](N(C)C)C(O)=C(C(N)=O)C(=O)[C@@]3(O)C(O)=C1C2=O [Tigecycline]
MIC (Staphylococcus; Cineol 1 mg DMSO): 0.19 µg/mL (≈ 0.324 µM) | MIC (Staphylococcus; Cineol 1 mg Tween/water): 0.125 µg/mL (≈ 0.213 µM) | MIC (Staphylococcus; Cineol 4 mg DMSO): 0.19 µg/mL (≈ 0.324 µM) | MIC (Staphylococcus; Cineol 4 mg Tween/water): 0.094 µg/mL (≈ 0.161 µM) | MIC (Staphylococcus; Cineol 16 mg DMSO): 0.125 µg/mL (≈ 0.213 µM) | MIC (Staphylococcus; Cineol 16 mg Tween/water): 0.094 µg/mL (≈ 0.161 µM) | MIC (Staphylococcus; DMSO control (antibiotic alone)): 0.25 µg/mL (≈ 0.427 µM) | MIC (Staphylococcus; ED control (antibiotic alone in distilled water)): 0.125 µg/mL (≈ 0.213 µM) | MIC (Staphylococcus; Tween water control (antibiotic alone)): 0.125 µg/mL (≈ 0.213 µM) | MIC (E. coli; Coli 8150, Cineol 1 mg DMSO): 0.19 µg/mL (≈ 0.324 µM) | MIC (E. coli; Coli 8150, Cineol 1 mg Tween/water): 0.125 µg/mL (≈ 0.213 µM) | MIC (E. coli; Coli 8150, Cineol 4 mg DMSO): 0.125 µg/mL (≈ 0.213 µM) | MIC (E. coli; Coli 8150, Cineol 4 mg Tween/water): 0.094 µg/mL (≈ 0.161 µM) | MIC (E. coli; Coli 8150, Cineol 16 mg DMSO): 0.064 µg/mL (≈ 0.109 µM) | MIC (E. coli; Coli 8150, Cineol 16 mg Tween/water): 0.1 µg/mL (≈ 0.171 µM) | MIC (E. coli; Coli 8150, DMSO control (antibiotic alone)): 0.19 µg/mL (≈ 0.324 µM) | MIC (E. coli; Coli 8150, ED control (antibiotic alone in distilled water)): 0.125 µg/mL (≈ 0.213 µM) | MIC (E. coli; Coli 8150, Tween water control (antibiotic alone)): 0.125 µg/mL (≈ 0.213 µM)

Compound: O=C(O)c1cn(C2CC2)c2cc(N3CCNCC3)c(F)cc2c1=O [Ciprofloxacin, ciprofloxacin]
colonies likely to be resistant mutants (Strain 9003/BLSE): Numerous | MIC (e-test) (Pasteurella; strain 14012, 5 mg cineol DMSO): 0.004 mg/L (≈ 0.0121 µM) | MIC (e-test) (Pasteurella; strain 14012, 5 mg cineol TE): 0.004 mg/L (≈ 0.0121 µM) | MIC (e-test) (Pasteurella; [1]): 0.003 mg/L (≈ 0.00905 µM) | MIC (e-test) (Pasteurella; [2]): 0.004 mg/L (≈ 0.0121 µM) | MIC (e-test) (Pasteurella; strain 14012, 10 mg cineol TE): 0.006 mg/L (≈ 0.0181 µM) | MIC (e-test) (Pasteurella; [3]): 0.004 mg/L (≈ 0.0121 µM) | MIC (e-test) (Pasteurella; strain 14012, DMSO control): 0.006 mg/L (≈ 0.0181 µM) | MIC (e-test) (Pasteurella; strain 14012, ED control): 0.004 mg/L (≈ 0.0121 µM) | MIC (e-test) (Pasteurella; strain 14012, TE control): 0.006 mg/L (≈ 0.0181 µM) | MIC (e-test) (Pasteurella; strain 14013, 5 mg cineol DMSO): 0.012 mg/L (≈ 0.0362 µM) | MIC (e-test) (Pasteurella; strain 14013, 5 mg cineol TE): 0.012 mg/L (≈ 0.0362 µM) | MIC (e-test) (Pasteurella; strain 14013, 5 mg cineol water): 0.012 mg/L (≈ 0.0362 µM) | MIC (e-test) (Pasteurella; strain 14013, 10 mg cineol DMSO): 0.012 mg/L (≈ 0.0362 µM) | MIC (e-test) (Pasteurella; strain 14013, 10 mg cineol TE): 0.012 mg/L (≈ 0.0362 µM) | MIC (e-test) (Pasteurella; strain 14013, 10 mg cineol water): 0.016 mg/L (≈ 0.0483 µM) | MIC (e-test) (Pasteurella; strain 14013, DMSO control): 0.012 mg/L (≈ 0.0362 µM) | MIC (e-test) (Pasteurella; strain 14013, ED control): 0.012 mg/L (≈ 0.0362 µM) | MIC (e-test) (Pasteurella; strain 14013, TE control): 0.016 mg/L (≈ 0.0483 µM) | colonies likely to be resistant mutants (Strain 10168/MRSA): invaded

MIC (E. coli; Coli 8138 (penicillinase), Cineol 1 mg DMSO, read-out: MIC): 4 µg/mL (≈ 9.36 µM) | MIC (E. coli; Coli 8138 (penicillinase), Cineol 1 mg Tween/water, read-out: MIC): 4 µg/mL (≈ 9.36 µM) | MIC (E. coli; Coli 8138 (penicillinase), Cineol 4 mg DMSO, read-out: MIC): 4 µg/mL (≈ 9.36 µM) | MIC (E. coli; Coli 8138 (penicillinase), Cineol 4 mg Tween/water, read-out: MIC): 3 µg/mL (≈ 7.02 µM) | MIC (E. coli; Coli 8138 (penicillinase), Cineol 16 mg DMSO, read-out: MIC): 4 µg/mL (≈ 9.36 µM) | MIC (E. coli; Coli 8138 (penicillinase), Cineol 16 mg Tween/water, read-out: MIC): 1 µg/mL (≈ 2.34 µM) | MIC (E. coli; Coli 8138 (penicillinase), DMSO control (antibiotic alone), read-out: MIC): 6 µg/mL (≈ 14 µM) | MIC (E. coli; Coli 8138 (penicillinase), ED control (antibiotic alone in distilled water), read-out: MIC): 6 µg/mL (≈ 14 µM) | MIC (E. coli; Coli 8138 (penicillinase), Tween water control (antibiotic alone), read-out: MIC): 6 µg/mL (≈ 14 µM) | MIC (E. coli; Coli 8150, Cineol 1 mg DMSO, read-out: MIC): 8 µg/mL (≈ 18.7 µM) | MIC (E. coli; Coli 8150, Cineol 1 mg Tween/water, read-out: MIC): 3 µg/mL (≈ 7.02 µM) | MIC (E. coli; Coli 8150, Cineol 4 mg DMSO, read-out: MIC): 3 µg/mL (≈ 7.02 µM) | MIC (E. coli; Coli 8150, Cineol 4 mg Tween/water, read-out: MIC): 3 µg/mL (≈ 7.02 µM) | MIC (E. coli; Coli 8150, Cineol 16 mg DMSO, read-out: MIC): 3 µg/mL (≈ 7.02 µM) | MIC (E. coli; Coli 8150, Cineol 16 mg Tween/water, read-out: MIC): 1 µg/mL (≈ 2.34 µM) | MIC (E. coli; Coli 8150, DMSO control (antibiotic alone), read-out: MIC): 8 µg/mL (≈ 18.7 µM) | MIC (E. coli; Coli 8150, ED control (antibiotic alone in distilled water), read-out: MIC): 3 µg/mL (≈ 7.02 µM) | MIC (E. coli; Coli 8150, Tween water control (antibiotic alone), read-out: MIC): 6 µg/mL (≈ 14 µM) | MIC (e-test) (Pasteurella; strain 14012, 5 mg cineol DMSO): 0.5 mg/L (≈ 1.17 µM) | MIC (e-test) (Pasteurella; strain 14012, 5 mg cineol TE): 0.5 mg/L (≈ 1.17 µM) | MIC (e-test) (Pasteurella; [1]): 0.5 mg/L (≈ 1.17 µM) | MIC (e-test) (Pasteurella; [2]): 0.38 mg/L (≈ 0.889 µM) | MIC (e-test) (Pasteurella; strain 14012, 10 mg cineol TE): 0.5 mg/L (≈ 1.17 µM) | MIC (e-test) (Pasteurella; [3]): 0.5 mg/L (≈ 1.17 µM) | MIC (e-test) (Pasteurella; strain 14012, DMSO control): 0.5 mg/L (≈ 1.17 µM) | MIC (e-test) (Pasteurella; strain 14012, ED control): 0.5 mg/L (≈ 1.17 µM) | MIC (e-test) (Pasteurella; strain 14012, TE control): 0.75 mg/L (≈ 1.75 µM) | MIC (e-test) (Pasteurella; strain 14014, 5 mg cineol DMSO): 0.19 mg/L (≈ 0.444 µM) | MIC (e-test) (Pasteurella; strain 14014, 5 mg cineol TE): 0.38 mg/L (≈ 0.889 µM) | MIC (e-test) (Pasteurella; strain 14014, 5 mg cineol water): 0.5 mg/L (≈ 1.17 µM) | MIC (e-test) (Pasteurella; strain 14014, 10 mg cineol DMSO): 0.5 mg/L (≈ 1.17 µM) | MIC (e-test) (Pasteurella; strain 14014, 10 mg cineol TE): 0.38 mg/L (≈ 0.889 µM) | MIC (e-test) (Pasteurella; strain 14014, 10 mg cineol water): 0.38 mg/L (≈ 0.889 µM) | MIC (e-test) (Pasteurella; strain 14014, DMSO control): 0.38 mg/L (≈ 0.889 µM) | MIC (e-test) (Pasteurella; strain 14014, ED Control): 0.38 mg/L (≈ 0.889 µM) | MIC (e-test) (Pasteurella; strain 14014, TE control): 0.5 mg/L (≈ 1.17 µM)
Compound: CO[C@@]1(NC(=O)Cc2cccs2)C(=O)N2C(C(=O)O)=C(COC(N)=O)CS[C@@H]21 [Cefoxitin]

Compound: gentamycin
Time spent beyond the MIC (MSSA 8238): <5 h
